Experimental data from patent US11266655B2, “Methods and compositions for treating urea cycle disorders” (Camp4 Therapeutics Corporation, priority 2019, dated 2022).
Where “and” joins values, the source holds several entries; their conditions need not be identical. Equal entries are not always repeated. Where two headings read alike, the source gives them in different places.

B1: GDF2 (BMP9): member of BMP family and the TGF-B superfamily (protein, UniProt Q9UK05 320-429, looked up)
Growth/differentiation factor …: SAGAGSHCQKTSLRVNFEDIGWDSWIIAPKEYEAYECKGGCFFPLADDVTPTKHAIVQTLVHLKFPTKVGKACCVPTKLSPISVLYKDDMGVPTLKYHYEGMSVAECGCR
B2: Anti mullerian hormone: member of the TGF-B gene family which mediates male sexual differentiation (protein, UniProt P03971 452-560, looked up)
Muellerian-inhibiting factor: SAGATAADGPCALRELSVDLRAERSVLIPETYQANNCQGVCGWPQSDRNPRYGNHVVLLLKMQVRGAALARPPCCVPTAYAGKLLISLSEERISAHHVPNMVATECGCR
B3: Wnt3a: secreted signaling protein of the WNT gene family (protein, UniProt P56704 19-352, looked up)
Protein Wnt-3a: SYPIWWSLAVGPQYSSLGSQPILCASIPGLVPKQLRFCRNYVEIMPSVAEGIKIGIQECQHQFRGRRWNCTTVHDSLAIFGPVLDKATRESAFVHAIASAGVAFAVTRSCAEGTAAICGCSSRHQGSPGKGWKWGGCSEDIEFGGMVSREFADARENRPDARSAMNRHNNEAGRQAIASHMHLKCKCHGLSGSCEVKTCWWSQPDFRAIGDFLKDKYDSASEMVVEKHRESRGWVETLRPRYTYFKVPTERDLVYYEASPNFCEPNPETGSFGTRDRTCNVSSHGIDGCDLLCCGRGHNARAERRREKCRCVFHWCCYVSCQECTRVYDVHTCK
B4: Nodal: 13 kDa member of the TGF-B superfamily (protein, UniProt Q96S42 238-347, looked up)
Nodal homolog: HHLPDRSQLCRKVKFQVDFNLIGWGSWIIYPKQYNAYRCEGECPNPVGEEFHPTNHAYIQSLLKRYQPHRVPSTCCAPVKTKPLSMLYVDNGRVLLDHHKDMIVEECGCL

Columns and labels:
[1] = test system: OTC; test: JAK inhibitors at 0.3 and 3 μM in primary human hepatocytes, OTC mRNA fold change; type: cell-based; conditions: fold change vs DMSO
Protocol: (§1) Additional small molecules that inhibit JAK1, JAK2, JAK3, or a combination of the JAK proteins were tested in primary human hepatocytes as described in Example 2. JAK inhibitors were tested in triplicate at 0.3 μM and 3 μM. The results are shown as the fold change (mRNA FC) in the mRNA levels of OTC and CPS1 genes after treatment compared to an untreated control (DMSO) and the standard deviation (SD).

[2] = test system: SLC25A15; test: RNA-seq of compound-treated primary human hepatocytes, SLC25A15 expression; type: cell-based; conditions: primary human hepatocytes; for Relative SLC25A15 level vs Untreated (±Standard Deviation): triplicate (Table 24, FIG. 16A-B); for Fold change (Log 2) vs untreated, SLC25A15 expression: RNA-seq (Table 8)
[3] = test system: ASS1; test: RNA-seq of compound-treated primary human hepatocytes, ASS1 expression; type: cell-based; conditions: primary human hepatocytes; for Relative ASS1 level vs Untreated (±Standard Deviation): triplicate (Table 15, FIG. 7)
[4] = test system: CPS1; test: RNA-seq of compound-treated primary human hepatocytes, CPS1 expression; type: cell-based; conditions: primary human hepatocytes; for Relative CPS1 level vs Untreated (±Standard Deviation): triplicate (Table 19, FIG. 11); for CPS1 expression, Fold change (Log 2) vs untreated: RNA-seq
[5] = test system: ARG1; test: RNA-seq of compound-treated primary human hepatocytes, ARG1 expression; type: cell-based; conditions: primary human hepatocytes; for Fold change (Log 2) vs untreated, ARG1 expression: RNA-seq (Table 7)
[6] = test system: CPS1; test: JAK inhibitors at 0.3 and 3 μM in primary human hepatocytes, CPS1 mRNA fold change; type: cell-based; conditions: fold change vs DMSO
Protocol: as §1

[7] = test system: NAGS; type: cell-based, human; conditions: for Relative NAGS level vs Untreated (±Standard Deviation): primary human hepatocytes, triplicate (Table 21, FIG. 13)
[8] = test system: urea cycle genes; test: RNA-seq of primary human hepatocytes, compounds that modulate multiple urea cycle-related genes; type: cell-based; conditions: primary human hepatocytes, RNA-seq; for Up-regulated Genes: urea cycle-related genes significantly increased (Table 10)
[9] = test system: OTC; test: RNA-seq of compound-treated primary human hepatocytes, OTC expression; type: cell-based; conditions: primary human hepatocytes, RNA-seq

Molecule	OTC mRNA FC ([1]; 0.3 uM)	OTC mRNA FC ([1]; 3 uM)	CPS1 mRNA FC ([6]; 0.3 uM)	CPS1 mRNA FC ([6]; 3 uM)	number of urea cycle genes whose expression was significantly up-regulated [8]	Up-regulated Genes [8]	CPS1 expression, Fold change (Log 2) vs untreated [4] [Log 2]	Fold change (Log 2) vs untreated, ARG1 expression [5] [Log 2]	further results
O=C(Nc1c[nH]nc1-c1nc2ccc(CN3CCOCC3)cc2[nH]1)NC1CC1 [AT9283]	1.56	0.56	1.53	1.05					Relative SLC25A15 level vs Untreated (±Standard Deviation) ([2]; 1 μM): 1.78 ± 0.04; Relative SLC25A15 level vs Untreated (±Standard Deviation) ([2]; 3 μM): 2.56 ± 1.37; Relative SLC25A15 level vs Untreated (±Standard Deviation) ([2]; 10 μM): 2.94 ± 0.98; Relative ASS1 level vs Untreated (±Standard Deviation) ([3]; 3 μM): 1.40 ± 0.43; Relative ASS1 level vs Untreated (±Standard Deviation) ([3]; 10 μM): 2.48 ± 0.79; Relative CPS1 level vs Untreated (±Standard Deviation) ([4]; 3 μM): 2.35 ± 0.15; Relative CPS1 level vs Untreated (±Standard Deviation) ([4]; 10 μM): 1.53 ± 0.33; Relative ARGI level vs Untreated (±Standard Deviation) ([5]; 10 μM, triplicate (Table 17, FIG. 9)): 1.70 ± 0.16; Relative NAGS level vs Untreated (±Standard Deviation) ([7]; 0.3 μM): 1.43 ± 0.38; Relative NAGS level vs Untreated (±Standard Deviation) ([7]; 1 μM): 1.49 ± 0.10; Relative NAGS level vs Untreated (±Standard Deviation) ([7]; 3 μM): 1.38 ± 0.07
EGF: Epidermal Growth Factor, a polypeptide growth factor					three	CPS1, OTC, ARG1	1.93	1.46	OTC expression, Fold change (Log 2) vs untreated [9]: 0.64 Log 2
FGF: Fibroblast Growth Factor-acidic (FGF-acidic), also known as FGF-1					three	CPS1, OTC, ARG1	1.72	1.24	OTC expression, Fold change (Log 2) vs untreated [9]: 0.56 Log 2
CC[C@@](C)(Nc1ccnc(-c2c[nH]c3ncccc23)n1)C(=O)NCC(F)(F)F [Decernotinib]	1.01	2.18	1.07	1.28					
COc1cc2ncnc(Nc3ccc(O)cc3)c2cc1OC [JANEX-1]	0.85	1.1	0.86	1.01					
CCS(=O)(=O)N1CC(CC#N)(n2cc(-c3ncnc4[nH]ccc34)cn2)C1 [Baricitinib]	2.56	2.85	1.4	1.38					
Cc1cc(Nc2cc(CN3CCOCC3)c3nc(C)c(Cc4ccc(Cl)cc4F)n3n2)n[nH]1 [LY2784544/gandotinib]	1.19	1.63	1.11	1.39					
CCn1c(C(=O)N(C2CC2)C2CC2)cc2c3c(ncn3C)c(Nc3cc(C)n(C)n3)nc21 [BMS-911543]	1.94	2.7	1.31 and 1.03	1.65					
PDGF					four	CPS1, OTC, ARG1, SLC25A15	2.12	1.85	Fold change (Log 2) vs untreated, SLC25A15 expression [2]: 0.71 Log 2; OTC expression, Fold change (Log 2) vs untreated [9]: 0.77 Log 2
NC(=O)c1cnc2[nH]ccc2c1N[C@@H]1[C@@H]2CC3C[C@H]1C[C@@](O)(C3)C2 [Peficitinib]	2.38	3.49	1.31	2.28					
CN1C/C=C/CCOc2cccc(c2)-c2ccnc(n2)Nc2cccc(c2)C1 [SB1317/TG02]	1.05	0.64	1.05	1.03					Relative SLC25A15 level vs Untreated (±Standard Deviation) ([2]; 0.3 μM): 1.36 ± 0.24; Relative SLC25A15 level vs Untreated (±Standard Deviation) ([2]; 3 μM): 2.70 ± 0.34; Relative SLC25A15 level vs Untreated (±Standard Deviation) ([2]; 10 μM): 2.71 ± 0.09; Relative ASS1 level vs Untreated (±Standard Deviation) ([3]; 1 μM): 1.34 ± 0.12; Relative ASS1 level vs Untreated (±Standard Deviation) ([3]; 3 μM): 1.90 ± 0.19; Relative ASS1 level vs Untreated (±Standard Deviation) ([3]; 10 μM): 1.92 ± 0.18
CCc1cc(O)c(F)cc1-c1ccc2c(-c3nc4c([nH]3)CCN(C(=O)c3cnc(N5CCCCC5)cn3)C4)n[nH]c2c1 [PF-06263276]	1.16	1.46	1.05	1.03					
Cc1cc(Nc2cc(CN3CCOCC3)c3nc(C)c(Cc4ccc(Cl)cc4F)n3n2)n[nH]1 [LYS2784544]	1.98	3.67	1.3	1.6					
N#CC[C@H](C1CCCC1)n1cc(-c2ncnc3[nH]ccc23)cn1 [ruxolitinib]	2.65	4.17	1.66	1.79					
CCS(=O)(=O)N1CCN(c2ccc(Nc3ncc(C(N)=O)c(NC4CC4)n3)cc2)CC1 [cerdulatinib]	2.56	1.89	1.58	2.39					
N#CCC1(n2cc(-c3ncnc4[nH]ccc34)cn2)CN(C2CCN(C(=O)c3ccnc(C(F)(F)F)c3F)CC2)C1 [itacitinib]	3.56	3.41	1.84	2.17					
O=C(Nc1nc2cccc(-c3ccc(CN4CCS(=O)(=O)CC4)cc3)n2n1)C1CC1 [GLPG0634/Filgotinib]	1.12	2.11	1.08	1.56					
Cc1cnc(Nc2ccc(OCCN3CCCC3)cc2)nc1Nc1cccc(S(=O)(=O)NC(C)(C)C)c1 [Fedratinib]	1.09	1.49	0.93	0.95					
O=C(Nc1ccc(-c2ccnc(Nc3ccc(N4CCOCC4)cc3)n2)cc1)C1CCCN1 (centres unmarked) [XL019]	1.09	1.02	0.91	0.81					
B1					five	ASS1, CPS1, NAGS, ARG1, SLC25A15	3.46	1.79	Fold change (Log 2) vs untreated, SLC25A15 expression [2]: 1.09 Log 2; Fold change (Log 2) vs untreated, ASS1 expression ([3]; RNA-seq (Table 4)): 1.34 Log 2; Fold change (Log 2) vs untreated, NAGS expression [7]: 0.63 Log 2
B2					three	CPS1, OTC, ARG1	2.35	2.06	OTC expression, Fold change (Log 2) vs untreated [9]: 0.81 Log 2
B3					four	CPS1, OTC, ARG1, SLC25A15	2.6	2.07	OTC expression, Fold change (Log 2) vs untreated [9]: 0.92 Log 2
B4					three	CPS1, OTC, ARG1	2.44	2.05	OTC expression, Fold change (Log 2) vs untreated [9]: 0.68 Log 2
